Assay results taken from ChEMBL document CHEMBL1139631, “Inhibition of hydrogen peroxide-induced necrotic cell death with 3-amino-2-indolylmaleimide derivatives” (Bioorg Med Chem Lett, 2005).

Legend:
Parameters in all cases: scale not given: the % may be the effect or the level left
[1] = target: T1, Serine/threonine-protein kinase D1 (Homo sapiens) (UniProt Q15139); assay: Percentage inhibition of Protein kinase C mu at 50 uM
T1 sequence (whole entry): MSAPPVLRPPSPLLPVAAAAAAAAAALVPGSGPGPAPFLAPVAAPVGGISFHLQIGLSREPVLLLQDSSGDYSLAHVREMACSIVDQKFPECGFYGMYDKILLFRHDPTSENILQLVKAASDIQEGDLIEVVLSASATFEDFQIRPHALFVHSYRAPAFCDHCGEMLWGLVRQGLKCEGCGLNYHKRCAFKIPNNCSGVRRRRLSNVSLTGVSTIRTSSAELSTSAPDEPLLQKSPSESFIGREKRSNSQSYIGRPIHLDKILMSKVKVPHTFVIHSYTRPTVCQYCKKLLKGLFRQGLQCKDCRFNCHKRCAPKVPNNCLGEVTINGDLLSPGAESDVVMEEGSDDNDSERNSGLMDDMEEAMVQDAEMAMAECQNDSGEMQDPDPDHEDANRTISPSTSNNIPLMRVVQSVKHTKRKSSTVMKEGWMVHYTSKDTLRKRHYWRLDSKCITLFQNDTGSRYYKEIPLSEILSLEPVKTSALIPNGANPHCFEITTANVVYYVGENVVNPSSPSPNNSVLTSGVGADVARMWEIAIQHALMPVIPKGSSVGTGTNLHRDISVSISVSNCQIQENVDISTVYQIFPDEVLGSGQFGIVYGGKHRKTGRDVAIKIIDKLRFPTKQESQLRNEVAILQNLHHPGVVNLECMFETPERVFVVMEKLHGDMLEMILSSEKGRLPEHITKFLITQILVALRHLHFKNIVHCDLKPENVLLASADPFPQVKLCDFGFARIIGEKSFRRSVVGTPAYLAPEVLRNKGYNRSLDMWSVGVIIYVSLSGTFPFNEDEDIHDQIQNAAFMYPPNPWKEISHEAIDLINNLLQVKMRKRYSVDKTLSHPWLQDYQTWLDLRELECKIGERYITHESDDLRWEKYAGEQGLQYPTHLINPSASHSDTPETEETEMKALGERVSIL

[2] = target: Ribosomal protein S6 kinase beta-1 (Homo sapiens) (UniProt P23443); assay: Percentage inhibition of Ribosomal protein S6 kinase at 50 uM
Ribosomal protein S6 kinase beta-1 (Homo sapiens), sequence (P23443 whole entry, looked up): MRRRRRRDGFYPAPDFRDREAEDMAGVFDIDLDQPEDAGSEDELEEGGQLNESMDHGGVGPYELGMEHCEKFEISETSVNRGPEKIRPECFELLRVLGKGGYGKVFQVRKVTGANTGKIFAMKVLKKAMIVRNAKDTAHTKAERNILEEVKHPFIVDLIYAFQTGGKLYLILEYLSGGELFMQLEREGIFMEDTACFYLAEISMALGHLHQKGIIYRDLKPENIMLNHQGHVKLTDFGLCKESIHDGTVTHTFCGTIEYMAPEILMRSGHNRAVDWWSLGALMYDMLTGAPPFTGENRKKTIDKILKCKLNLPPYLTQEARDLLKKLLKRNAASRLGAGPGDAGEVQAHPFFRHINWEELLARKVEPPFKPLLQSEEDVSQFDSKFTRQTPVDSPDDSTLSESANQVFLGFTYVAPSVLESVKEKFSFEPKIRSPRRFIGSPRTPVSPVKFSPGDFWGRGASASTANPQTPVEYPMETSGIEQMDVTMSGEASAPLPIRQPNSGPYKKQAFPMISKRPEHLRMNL

[3] = target: Protein kinase C eta type (Homo sapiens) (UniProt P24723); assay: Percentage inhibition of Protein kinase C eta at 50 uM
Protein kinase C eta type (Homo sapiens), sequence (P24723 whole entry): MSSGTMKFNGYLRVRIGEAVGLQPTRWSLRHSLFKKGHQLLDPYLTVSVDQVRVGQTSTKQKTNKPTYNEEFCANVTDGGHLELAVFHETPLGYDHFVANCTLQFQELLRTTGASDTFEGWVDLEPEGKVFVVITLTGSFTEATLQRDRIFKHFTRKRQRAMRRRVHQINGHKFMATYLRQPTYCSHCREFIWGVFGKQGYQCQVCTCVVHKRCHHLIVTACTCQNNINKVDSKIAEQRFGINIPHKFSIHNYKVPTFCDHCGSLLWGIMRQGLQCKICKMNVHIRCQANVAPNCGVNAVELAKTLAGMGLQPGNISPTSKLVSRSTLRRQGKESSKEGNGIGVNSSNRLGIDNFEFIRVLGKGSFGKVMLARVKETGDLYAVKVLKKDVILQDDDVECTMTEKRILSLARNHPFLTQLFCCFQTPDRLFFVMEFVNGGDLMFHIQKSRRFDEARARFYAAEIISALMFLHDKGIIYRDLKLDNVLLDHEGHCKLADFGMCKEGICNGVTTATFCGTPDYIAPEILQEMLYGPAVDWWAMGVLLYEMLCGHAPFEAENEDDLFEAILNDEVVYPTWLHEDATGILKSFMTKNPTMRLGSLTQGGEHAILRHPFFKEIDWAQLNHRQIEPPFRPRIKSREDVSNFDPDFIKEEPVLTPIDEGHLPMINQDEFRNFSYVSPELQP

[4] = target: Protein kinase C alpha type (Homo sapiens) (UniProt P17252); assay: Percentage inhibition of Protein kinase C alpha at 50 uM
[5] = target: T2, Protein kinase C iota type (Homo sapiens) (UniProt P41743); assay: Percentage inhibition of Protein kinase C iota at 50 uM
T2 sequence (whole entry): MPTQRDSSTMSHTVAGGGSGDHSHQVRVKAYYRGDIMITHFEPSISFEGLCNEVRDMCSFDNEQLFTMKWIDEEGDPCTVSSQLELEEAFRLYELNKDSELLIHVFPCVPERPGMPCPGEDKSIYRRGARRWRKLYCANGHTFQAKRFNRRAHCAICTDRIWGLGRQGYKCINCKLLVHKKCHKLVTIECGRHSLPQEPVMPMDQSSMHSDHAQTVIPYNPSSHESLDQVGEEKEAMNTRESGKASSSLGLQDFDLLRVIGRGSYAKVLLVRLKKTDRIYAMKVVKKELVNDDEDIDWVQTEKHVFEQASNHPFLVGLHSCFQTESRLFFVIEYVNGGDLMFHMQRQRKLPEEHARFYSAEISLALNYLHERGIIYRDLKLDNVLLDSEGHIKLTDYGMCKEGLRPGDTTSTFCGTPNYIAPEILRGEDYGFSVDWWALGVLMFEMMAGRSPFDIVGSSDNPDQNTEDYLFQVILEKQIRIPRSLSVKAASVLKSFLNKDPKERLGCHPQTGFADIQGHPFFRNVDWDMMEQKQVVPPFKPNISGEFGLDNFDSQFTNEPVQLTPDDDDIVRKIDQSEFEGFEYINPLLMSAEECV

[6] = target: Protein kinase C theta type (Homo sapiens) (UniProt Q04759); assay: Percentage inhibition of Protein kinase C theta at 50 uM
Protein kinase C theta type (Homo sapiens), sequence (Q04759 whole entry, looked up): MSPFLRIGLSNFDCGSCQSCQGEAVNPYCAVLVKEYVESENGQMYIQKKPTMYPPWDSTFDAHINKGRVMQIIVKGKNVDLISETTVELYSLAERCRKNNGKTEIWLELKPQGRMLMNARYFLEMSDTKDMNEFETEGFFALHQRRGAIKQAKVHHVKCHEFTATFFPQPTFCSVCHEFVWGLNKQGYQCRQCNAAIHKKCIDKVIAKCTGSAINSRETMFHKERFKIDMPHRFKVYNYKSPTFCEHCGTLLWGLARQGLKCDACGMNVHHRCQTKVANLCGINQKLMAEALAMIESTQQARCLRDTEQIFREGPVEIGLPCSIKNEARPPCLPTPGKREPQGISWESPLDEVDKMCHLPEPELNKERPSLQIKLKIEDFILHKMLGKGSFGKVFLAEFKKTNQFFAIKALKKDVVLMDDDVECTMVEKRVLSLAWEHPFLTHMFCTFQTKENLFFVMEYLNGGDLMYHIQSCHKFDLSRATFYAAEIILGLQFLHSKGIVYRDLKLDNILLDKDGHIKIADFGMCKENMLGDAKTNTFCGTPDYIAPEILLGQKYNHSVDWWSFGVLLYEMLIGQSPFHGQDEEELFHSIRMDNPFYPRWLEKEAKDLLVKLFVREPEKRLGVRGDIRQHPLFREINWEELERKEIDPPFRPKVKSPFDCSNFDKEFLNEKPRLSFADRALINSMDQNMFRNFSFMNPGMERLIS

[7] = target: Protein kinase C beta type (Homo sapiens) (UniProt P05771); assay: Percentage inhibition of Protein kinase C beta 2 at 50 uM
Protein kinase C beta type (Homo sapiens), sequence (P05771 2-671 limits assumed): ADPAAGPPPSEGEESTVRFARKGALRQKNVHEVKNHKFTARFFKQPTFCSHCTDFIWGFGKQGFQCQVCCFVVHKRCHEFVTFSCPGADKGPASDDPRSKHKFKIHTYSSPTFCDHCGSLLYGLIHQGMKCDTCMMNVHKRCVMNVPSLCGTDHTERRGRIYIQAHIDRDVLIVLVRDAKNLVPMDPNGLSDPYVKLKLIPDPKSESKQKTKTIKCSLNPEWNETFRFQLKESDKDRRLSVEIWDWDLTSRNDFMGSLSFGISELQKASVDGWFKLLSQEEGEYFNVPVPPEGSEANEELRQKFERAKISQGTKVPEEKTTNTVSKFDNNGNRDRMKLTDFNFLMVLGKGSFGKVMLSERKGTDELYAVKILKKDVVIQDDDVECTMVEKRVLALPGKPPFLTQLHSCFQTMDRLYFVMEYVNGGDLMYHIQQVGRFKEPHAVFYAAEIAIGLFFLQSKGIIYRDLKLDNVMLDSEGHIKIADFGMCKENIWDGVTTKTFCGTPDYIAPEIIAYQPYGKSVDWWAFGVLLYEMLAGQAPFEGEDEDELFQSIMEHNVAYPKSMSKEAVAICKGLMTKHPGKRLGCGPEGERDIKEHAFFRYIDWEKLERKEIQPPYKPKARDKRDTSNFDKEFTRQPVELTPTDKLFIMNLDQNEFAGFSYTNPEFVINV

[8] = target: Protein kinase C beta type (Homo sapiens) (UniProt P05771); assay: Percentage inhibition of Protein kinase C beta 1 at 50 uM
[9] = target: T3, Protein kinase C epsilon type (Homo sapiens) (UniProt Q02156); assay: Percentage inhibition of Protein kinase C epsilon at 50 uM
T3 sequence (whole entry): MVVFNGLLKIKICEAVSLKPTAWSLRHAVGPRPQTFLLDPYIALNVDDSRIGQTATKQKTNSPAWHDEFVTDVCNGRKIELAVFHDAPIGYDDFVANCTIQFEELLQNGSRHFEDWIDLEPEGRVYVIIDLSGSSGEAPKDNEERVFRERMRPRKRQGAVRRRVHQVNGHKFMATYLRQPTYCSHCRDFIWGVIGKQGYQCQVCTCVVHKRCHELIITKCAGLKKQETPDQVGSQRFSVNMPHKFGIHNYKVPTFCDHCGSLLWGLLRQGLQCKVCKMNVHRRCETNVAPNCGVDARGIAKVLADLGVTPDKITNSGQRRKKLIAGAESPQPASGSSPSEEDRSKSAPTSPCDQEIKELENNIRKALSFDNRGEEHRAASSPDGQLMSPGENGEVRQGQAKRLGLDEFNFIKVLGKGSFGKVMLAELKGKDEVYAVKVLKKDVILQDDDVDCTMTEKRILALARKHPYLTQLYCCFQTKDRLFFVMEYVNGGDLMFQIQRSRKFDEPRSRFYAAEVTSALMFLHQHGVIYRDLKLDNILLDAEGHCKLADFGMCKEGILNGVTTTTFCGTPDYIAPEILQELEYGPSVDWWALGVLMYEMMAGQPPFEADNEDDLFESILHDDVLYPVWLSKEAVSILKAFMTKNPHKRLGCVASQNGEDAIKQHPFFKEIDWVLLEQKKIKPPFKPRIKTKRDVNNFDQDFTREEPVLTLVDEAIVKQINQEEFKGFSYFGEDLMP

[10] = target: Protein kinase C delta type (Homo sapiens) (UniProt Q05655); assay: Percentage inhibition of Protein kinase C delta at 50 uM
Protein kinase C delta type (Homo sapiens), sequence (Q05655 whole entry, looked up): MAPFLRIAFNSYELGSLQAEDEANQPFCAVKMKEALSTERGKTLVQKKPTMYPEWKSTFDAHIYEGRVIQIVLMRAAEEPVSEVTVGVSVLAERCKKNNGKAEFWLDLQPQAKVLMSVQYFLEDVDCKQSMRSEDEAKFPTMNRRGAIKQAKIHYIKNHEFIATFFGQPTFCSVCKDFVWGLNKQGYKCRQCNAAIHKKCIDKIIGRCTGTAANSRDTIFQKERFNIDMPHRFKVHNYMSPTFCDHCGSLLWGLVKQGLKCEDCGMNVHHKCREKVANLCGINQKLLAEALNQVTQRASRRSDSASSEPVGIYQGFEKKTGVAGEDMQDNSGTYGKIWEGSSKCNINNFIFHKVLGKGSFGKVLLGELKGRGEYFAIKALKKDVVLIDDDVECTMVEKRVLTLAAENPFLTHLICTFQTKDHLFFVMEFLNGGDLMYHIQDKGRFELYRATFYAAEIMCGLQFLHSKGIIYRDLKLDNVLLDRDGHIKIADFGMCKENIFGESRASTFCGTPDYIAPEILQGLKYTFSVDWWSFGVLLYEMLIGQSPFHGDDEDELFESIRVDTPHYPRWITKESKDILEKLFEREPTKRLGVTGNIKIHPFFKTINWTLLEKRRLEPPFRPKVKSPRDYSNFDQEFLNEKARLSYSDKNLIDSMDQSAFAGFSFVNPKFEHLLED

[11] = target: Protein kinase C gamma type (Homo sapiens) (UniProt P05129); assay: Percentage inhibition of Protein kinase C gamma at 50 uM
[12] = target: T4, Protein kinase C zeta type (Homo sapiens) (UniProt Q05513); assay: Percentage inhibition against Protein kinase C zeta at 50 uM
T4 sequence (whole entry): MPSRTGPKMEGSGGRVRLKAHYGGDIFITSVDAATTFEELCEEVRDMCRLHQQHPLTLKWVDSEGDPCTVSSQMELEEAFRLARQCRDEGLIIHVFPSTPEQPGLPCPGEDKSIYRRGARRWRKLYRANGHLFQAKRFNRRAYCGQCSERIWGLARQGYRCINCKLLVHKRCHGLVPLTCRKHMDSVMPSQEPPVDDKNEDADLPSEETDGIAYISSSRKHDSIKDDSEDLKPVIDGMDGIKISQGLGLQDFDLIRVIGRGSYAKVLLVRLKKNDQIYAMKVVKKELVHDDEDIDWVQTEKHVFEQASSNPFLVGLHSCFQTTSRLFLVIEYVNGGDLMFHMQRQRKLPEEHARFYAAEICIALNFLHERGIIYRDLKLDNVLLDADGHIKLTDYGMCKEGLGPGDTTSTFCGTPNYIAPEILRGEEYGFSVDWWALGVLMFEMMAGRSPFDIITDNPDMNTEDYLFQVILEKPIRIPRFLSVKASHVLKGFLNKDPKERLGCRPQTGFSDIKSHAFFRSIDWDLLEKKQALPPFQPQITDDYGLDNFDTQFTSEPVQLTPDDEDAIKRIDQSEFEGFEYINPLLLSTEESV

| Activity [1] [%] | Activity [2] [%] | Activity [3] [%] | Activity [4] [%] | Activity [5] [%] | Activity [6] [%] | Activity [7] [%] | Activity [8] [%] | Activity [9] [%] | Activity [10] [%] | Activity [11] [%] | Activity [12] [%] | SMILES |
| --- | --- | --- | --- | --- | --- | --- | --- | --- | --- | --- | --- | --- |
| 88 | 28 | 55 | 66 | 87 | 78 | 84 | 78 | 10 | 82 | 85 | 85 | CN1C(=O)C(c2c[nH]c3ccccc23)=C(c2cn(CCCN)c3ccccc23)C1=O |
| 97 | 96 | 98 | 95 | 96 | 100 | 106 | 84 | 95 | 108 | 115 | 100 | CCCCCNC1=C(c2cn(C)c3ccccc23)C(=O)N(C)C1=O |
